Like-named read-outs stand apart in the source and are kept apart here.
How the values were obtained:
HTT mRNA = assay: Splicing RT-qPCR assay, HTT canonical (CJ) and alternative (AJ) junction mRNA; format: cell-based; settings: Homo sapiens; for EC50: AC50 = 50% response in AJ mRNA increase
In short: (§1)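 A673/K562; 11-pt 3-fold dil., top 10 uM final, ≤0.25% DMSO; 24 h, 37 °C, 5% CO2. Lysis, then RT-qPCR of CJ/AJ isoforms, ≥duplicate. ΔCt vs housekeeper (GAPDH/GUSB/PPIA), ΔΔCt vs DMSO, RQ = 2^(−ΔΔCt), expressed as % response.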

HiBiT-tagged HTT protein = assay: HiBiT protein abundance assay, HTT (K562 HiBiT knock-in cells); format: cell-based, human; settings: 24 hours treatment
Experimental: (§2) Compounds described herein were used to screen for effects on quantitative protein abundance using a HiBit assay system (Promega). Quantitative protein abundance was determined by measuring the protein levels of HiBit-tagged protein targets expressed in cell culture via luminescence using the Nano-Glo HiBiT Lytic Detection System, which uses a split complementation assay format to reconstitute NanoBiT enzyme to generate a luminescent signal. A protein abundance assay was developed such that endogenous protein targets could be modified with the HiBiT peptide tag and their abundance could be assessed after compound treatment. Briefly, K562 cell lines containing a HiBiT-modification were treated with various compounds described herein (e.g., compounds of Formulas (I), or (II)). After treatment for 24 hours, the protein abundance of a specific target was determined by measuring luminescence.
(§3) Cells were maintained in IMDM with 10% FBS. Before the assay, cells were diluted with […] growth media (IMDM+[…] media) and were seeded in a 384-well plate at a density of 10000 cells/well (for each cell line listed in Table 6). Each compound was prepared as a 10-point 3-fold serial dilution in DMSO with the top dose at a final concentration of […] in the well. Unmodified K562 cells were added at the previously specified density with DMSO to serve as an assay baseline and positive control (PC) and DMSO only with the respective modified cell lines was added to the negative control (NC) columns. Final DMSO concentration was kept at or below 0.25%. Treated cell plates were placed in an incubator at 37° C. with […] for 24 hours. After 24 hours, 25 μL of Complete HiflitLytic reagent was added to each well at room temperature (e.g. one plate requiring 10 mL Lytic Buffer, 100 μL LgBiT Protein, 200 μL Lytic Substrate), shaken for 5 minutes at 600 RPM, then left to sit for 10 minutes for signal to stabilize before reading on a Spark Cyto plate reader (Tecan) with a 500 ms measurement time.
(§4) To determine compound effects on protein abundance of each target in Table 6, the percent response for each respective cell line was calculated at each compound concentration as follows:
(§5) For the normalized response at each concentration, a four-parameter logistical regression was fit to the data and the response was interpolated at the 50% value to determine a concentration for protein abundance at 50% (IC50) the untreated control.

Target C = assay: HiBiT protein abundance assay, Target C (K562 HiBiT knock-in cells); format: cell-based, human; settings: 24 hours treatment
Experimental: • Promega Nano-Glo HiBiT Lytic Detection System (cat #N3030) • Corning 384-well TC-treated microplates (cat #3570) • Synthego Engineered Cells Knock-In Clones
as §3, §4, §5

MYB mRNA = assay: Splicing RT-qPCR assay, MYB canonical (CJ) and alternative (AJ) junction mRNA; format: cell-based; settings: Homo sapiens; for EC50: AC50 = 50% response in AJ mRNA increase
In short: as §1

HiBiT-tagged MYB protein = assay: HiBiT protein abundance assay, MYB (K562 HiBiT knock-in cells); format: cell-based, human; settings: 24 hours treatment
Experimental: as §2, §3, §4, §5

[1] = test system: K562 (human chronic myelogenous leukemia) cells; assay: Cell viability, Cell Titer Glo 2.0 assay, K562 cells; format: cell-based; settings: 72 hours
Experimental: Compounds described herein were screened for toxicity in K562 (human chronic myelogenous leukemia) and SH-SY5Y (human neuroblastoma) cells using a Cell Titer Glo 2.0 assay.
Cells were plated at 500 cells/well (K562 cells) in 45 μL of IMDM supplemented with 10% FBS in a 384-well opaque plate. Wells containing only medium were used as a blank control. Test compounds (e.g., compounds of Formula (I), (III), (IV), (V), or (VI)) were first serially diluted in DMSO then diluted 1:100 with IMDM+10% FBS. The final concentration of DMSO was 0.1% in each well. The cells were incubated for 72 hours at 37° C. and 5% CO2 before assaying with Cell Titer Glo 2.0 reagent.

SMN2 mRNA = assay: Splicing RT-qPCR gene panel, SMN2 canonical junction (CJ) mRNA; format: cell-based; settings: Homo sapiens; Table 8; larger gene panel, decrease in CJ mRNA levels
In short: as §1

Target C mRNA = assay: Splicing RT-qPCR gene panel, Target C canonical junction (CJ) mRNA; format: cell-based; settings: Homo sapiens; Table 8; larger gene panel, decrease in CJ mRNA levels
In short: as §1

[2] = Table 7, RT-qPCR, A673 or K562 cells, 24 hours treatment
[3] = Table 7, IC50 = 50% response in CJ mRNA decrease, RT-qPCR, A673 or K562 cells, 24 hours treatment, read-out: HTT CJ
[4] = Table 8, larger gene panel, decrease in CJ mRNA levels, read-out: HTT CJ IC50
[5] = Table 7, IC50 = 50% response in CJ mRNA decrease, RT-qPCR, A673 or K562 cells, 24 hours treatment, read-out: MYB CJ
[6] = Table 8, larger gene panel, decrease in CJ mRNA levels, read-out: MYB CJ IC50

Cc1cn2nc(-n3cc4cc(C5CCNCC5)sc4n3)cc(C)c2n1 [Compound 110, 4-(2-[2,8-dimethylimidazo[1,2-b]pyridazin-6-yl]thieno[2,3-c]pyrazol-5-yl) piperidine]
1 to 10 µM: IC50 [1]
100 to 1000 nM: EC50 (HTT mRNA; [2]) | IC50 (HTT mRNA; [3]) | IC50 (HTT mRNA; [4]) | EC50 (MYB mRNA; [2]) | IC50 (MYB mRNA; [6])
1000 to 10000 nM: IC50 (HiBiT-tagged HTT protein) | IC50 (Target C) | IC50 (MYB mRNA; [5]) | IC50 (HiBiT-tagged MYB protein)
< 100 nM: IC50 (SMN2 mRNA)

Cn1cc2cc(-c3cc4nn(C5CCNCC5)cc4s3)cc(F)c2n1 [Compound 121, 7-fluoro-2-methyl-5-[2-(piperidin-4-yl)thieno[3,2-c]pyrazol-5-yl]indazole]
< 100 nM: IC50 (HTT mRNA; [3]) | IC50 (HiBiT-tagged HTT protein) | IC50 (Target C) | IC50 (Target C mRNA) | IC50 (SMN2 mRNA)
100 to 1000 nM: EC50 (HTT mRNA; [2]) | IC50 (HTT mRNA; [4]) | EC50 (MYB mRNA; [2]) | IC50 (MYB mRNA; [5]) | IC50 (MYB mRNA; [6]) | IC50 (HiBiT-tagged MYB protein)

Cc1cn2cc(-n3cc4sc(C5CCNCC5)cc4n3)cc(C)c2n1 [Compound 173]
1 to 10 µM: IC50 [1]
1000 to 10000 nM: EC50 (HTT mRNA; [2]) | IC50 (HTT mRNA; [3]) | IC50 (HTT mRNA; [4]) | IC50 (SMN2 mRNA)
> 10000 nM: EC50 (MYB mRNA; [2]) | IC50 (MYB mRNA; [5]) | IC50 (MYB mRNA; [6]) | IC50 (Target C mRNA)

COc1c(-c2nc3sc(C4CCNCC4)cc3s2)cc(F)c2nn(C)cc12 [Compound 237, 7-fluoro-4-methoxy-2-methyl-5-[5-(piperidin-4-yl)thieno[2,3-d][1,3]thiazol-2-yl]indazole]
1000 to 10000 nM: IC50 (MYB mRNA; [5])
> 10000 nM: EC50 (HTT mRNA; [2]) | IC50 (HTT mRNA; [3]) | IC50 (HTT mRNA; [4]) | EC50 (MYB mRNA; [2]) | IC50 (MYB mRNA; [6]) | IC50 (Target C mRNA) | IC50 (SMN2 mRNA)

Cc1cc(-c2nc3sc(C4CCNCC4)cc3s2)cc2cn(C)nc12 [Compound 238, 2,7-dimethyl-5-[5-(piperidin-4-yl)thieno[2,3-d][1,3]thiazol-2-yl]indazole]
< 100 nM: EC50 (HTT mRNA; [2]) | IC50 (HTT mRNA; [3]) | IC50 (HTT mRNA; [4]) | IC50 (SMN2 mRNA)
100 to 1000 nM: EC50 (MYB mRNA; [2]) | IC50 (MYB mRNA; [5]) | IC50 (MYB mRNA; [6]) | IC50 (Target C mRNA)

Cc1cn2cc(-c3nc4sc(C5CCNCC5)cc4s3)nc2c(C)n1 [Compound 239, 4-(2-{6,8-dimethylimidazo[1,2-a]pyrazin-2-yl}thieno[2,3-d][1,3]thiazol-5-yl)piperidine]
1000 to 10000 nM: EC50 (HTT mRNA; [2]) | IC50 (HTT mRNA; [4]) | EC50 (MYB mRNA; [2]) | IC50 (MYB mRNA; [5]) | IC50 (MYB mRNA; [6]) | IC50 (Target C mRNA)
100 to 1000 nM: IC50 (HTT mRNA; [3]) | IC50 (SMN2 mRNA)

Cn1cc2cc(-c3nc4sc([C@H]5CCNC[C@H]5F)cc4s3)cc(F)c2n1 [Compound 240, 7-fluoro-5-{5-[(3S,4S)-3-fluoropiperidin-4-yl]thieno[2,3-d][1,3]thiazol-2-yl}-2-methylindazole]
100 to 1000 nM: IC50 (SMN2 mRNA)
1000 to 10000 nM: EC50 (HTT mRNA; [2]) | IC50 (HTT mRNA; [3]) | IC50 (HTT mRNA; [4]) | EC50 (MYB mRNA; [2]) | IC50 (MYB mRNA; [5]) | IC50 (MYB mRNA; [6])
> 10000 nM: IC50 (Target C mRNA)

COc1c(-c2nc3sc(C4CCNCC4)cc3s2)cc2cn(C)nc2c1F [Compound 242, 7-fluoro-6-methoxy-2-methyl-5-[5-(piperidin-4-yl)thieno[2,3-d][1,3]thiazol-2-yl]indazole]
< 100 nM: EC50 (HTT mRNA; [2]) | IC50 (HTT mRNA; [3]) | IC50 (HTT mRNA; [4]) | EC50 (MYB mRNA; [2]) | IC50 (MYB mRNA; [5]) | IC50 (MYB mRNA; [6]) | IC50 (Target C mRNA) | IC50 (SMN2 mRNA)

Source: patent US20250109140A1, “5-[5-(PIPERIDIN-4-YL)THIENO[3,2-C]PYRAZOL-2-YL]INDAZOLE DERIVATIVES AND RELATED COMPOUNDS AS MODULATORS FOR SPLICING NUCLEIC ACIDS AND FOR THE TREATMENT OF PROLIFERATIVE DISEASES” (REMIX THERAPUTICS INC., priority 2022, published 2025)
